The target of the experiment is T1, 5-LO (Homo sapiens, UniProt P09917).
T1 sequence (P09917 1-674): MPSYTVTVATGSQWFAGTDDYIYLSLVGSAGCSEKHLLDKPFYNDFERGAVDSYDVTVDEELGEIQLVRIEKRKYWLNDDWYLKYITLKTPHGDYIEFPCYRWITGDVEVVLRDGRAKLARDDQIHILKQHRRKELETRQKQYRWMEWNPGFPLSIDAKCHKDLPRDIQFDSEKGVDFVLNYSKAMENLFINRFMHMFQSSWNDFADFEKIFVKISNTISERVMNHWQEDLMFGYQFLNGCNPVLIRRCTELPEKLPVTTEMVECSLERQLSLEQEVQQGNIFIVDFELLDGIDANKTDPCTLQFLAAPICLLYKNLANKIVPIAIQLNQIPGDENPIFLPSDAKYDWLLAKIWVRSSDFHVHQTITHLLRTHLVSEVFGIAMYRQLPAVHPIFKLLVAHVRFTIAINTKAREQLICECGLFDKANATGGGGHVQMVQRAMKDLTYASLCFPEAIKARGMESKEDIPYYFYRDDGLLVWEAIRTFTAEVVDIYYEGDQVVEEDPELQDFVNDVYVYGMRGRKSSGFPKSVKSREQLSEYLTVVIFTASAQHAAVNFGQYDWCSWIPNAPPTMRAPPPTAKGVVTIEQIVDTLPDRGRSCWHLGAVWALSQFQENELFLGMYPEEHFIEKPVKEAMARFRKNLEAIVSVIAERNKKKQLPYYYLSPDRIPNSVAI
Nature of the experiment: 5-LO activity in neutrophil homogenates. It is filed as biochemical. Set-up: endogenous in cells; host or cells: neutrophils isolated from peripheral blood of healthy adult volunteers; intact or sonicated homogenates. The conditions noted are these: n=3. On the procedure: Peripheral blood (University Hospital Jena, Germany) was withdrawn from healthy adult volunteers with consent that had not taken any anti-inflammatory drugs during the last 10 days, by venipuncture in heparinized tubes (16 IE heparin/mL blood). The blood was centrifuged at 4000 g for 20 min at 20° C. for preparation of leukocyte concentrates. Leukocyte concentrates were then subjected to dextran sedimentation and centrifugation on lymphocyte separation medium (LSM 1077, PAA, Colbe, Germany). Contaminating erythrocytes of pelleted neutrophils were removed by hypotonic Iysis. Neutrophils were then washed twice in ice-cold PBS and finally resuspended in PBS pH 7.4 containing 1 mg/mL glucose or in PBS pH 7.4 containing 1 mg/mL glucose plus 1 mM CaCl2 (PGC buffer) (purity>96-97%).
For analysis of 5-LO product formation in corresponding homogenates, neutrophils were resuspended in PBS containing 1 mM EDTA for 5 min at 4° C. and sonicated (4×10 s, 4° C.). Homogenates, corresponding to 5×10^6 cells/mL, were incubated with the test compounds or vehicle (0.1% DMSO) with or without 1 mM DTT for 15 min at 4° C., pre-warmed for 30 s at 37° C., and the reaction was started by the addition of 2 mM CaCl2 plus the indicated concentrations of AA (routinely 20 μM). The reaction was stopped after 10 min and the samples were analyzed as described for intact cells above.
Data are expressed as mean±S.E.M. IC50 values were calculated from averaged measurements at 6 different concentrations of the compound by nonlinear regression using GraphPad Prism software (San Diego, Calif.) one site binding competition. Statistical evaluation of the data was performed by one-way ANOVA followed by a Tukey-Kramer post-hoc test for multiple comparisons respectively. A p value<0.05 (*) was considered significant.

Like-named read-outs stand apart in the source and are kept apart here.

Usually IC50 stands for the concentration that gives 50% inhibition. For `CC1(C)CCC2=C(O1)c1ccccc1C(=O)C2=O` [Compound 1, 3,4-dihydro-2,2-dimethyl-2H-naphtho[1,2-b]pyran-5,6-dione], the half-inhibitory concentration (IC50) is, setting by setting: (1 mM DTT, read-out: IC50 (with DTT), 5-LO activity in neutrophil homogenates) 90 nM; (absence of DTT, read-out: IC50 (without DTT), 5-LO activity in neutrophil homogenates) 5200 nM.

The values above are taken from patent US20210161855A1, “5-LIPOXYGENASE ANTAGONISTS” (INSTITUTO DE MEDICINA MOLECULAR JOÃO LOBO ANTUNES, priority 2017, published 2021).
